How the values were obtained:
[1] = background statement, no reference given, cited from earlier work
Plasmodium falciparum [2] = assay: Activity against the malaria parasite Plasmodium falciparum; conditions: fold versus 1
Plasmodium falciparum [3] = conditions: cited from earlier work

Compound	oral availability [1]	half-life in plasma ([1]; plasma)	increased activity against Plasmodium falciparum relative to 1 (Plasmodium falciparum [2])	EC50 (Plasmodium falciparum [3])
O=CN(O)CCCP(=O)(O)O [Compound 1, Fosmidomycin]	poor	~ 1 h	–	–
O=CN(O)CCC(c1ccc(Cl)c(Cl)c1)P(=O)(O)O (stereo not shown) [Compound 8]	–	–	> 10 ×	90 nM
